Test results from patent EP0411182A1, “Ascorbic acid derivative” (NIPPON HYPOX LABORATORIES INCORPORATED, priority 1989, dated 1991).

Assay: Effects on formazan formation in the xanthine-xanthine oxidase-Nitrotetrazolium Blue system
Assay type: biochemical
Details: for Inhibition ratio (%) of formazan formation: 0.05 M phosphoric acid buffer pH 7.8, 30°C
Procedure: Test example 2 (Effects on formazan formation in the xanthine-xanthine oxidase-Nitrotetrazolium Blue system)
Specimens were added to a 0.05 M phosphoric acid buffer solution (pH 7.8) containing xanthine, EDTA 2Na and Nitrotetrazolium Blue (NTB) so as to provide the respective final concentrations of 5x10⁻⁵ M, 1x10⁻⁴ M and 5x10⁻⁴ M and warmed at 30°C for 30 minutes. Xanthine oxidase (manufactured by Sigma Corp.) was added, and the resulting mixtures were warmed at 30°C for 10 minutes to colorimetrically determine formazan formed by superoxide anion radicals. The inhibition ratio of formazan formation was determined from the results at concentrations of 0.5 mM and 4 mM of each specimen.

## COC(=O)COC1=C(O)[C@@H]([C@@H]2COC(C)(C)O2)OC1=O [Compound 206, L-5,6-O-isopropylidene-2-O-methylcarbomethylascorbic acid]
Concentration 0.5 mM
  Inhibition ratio (%) of formazan formation: 17.8%
Concentration 4 mM
  Inhibition ratio (%) of formazan formation: 55.5%
Summary of Table-4
  formazan formation (result in words): remarkably inhibited formazan formation
